Two substances from patent US20110195147A1, “IRON SOURCE PRODUCT IN THE FORM OF CAPSULES AND PROCESS FOR THEIR PREPARATION” (AB-BIOTICS S.A., priority 2008, published 2011) can be followed below.

In this data set the test system is HELA cell line. The experiment in a line: Capsule cytotoxicity, EZ4U cell proliferation and cytotoxicity assay. The following applies: for % Viability 24 h: 24 h incubation; for % Viability 72 h: 72 h incubation. As for the experimental part:
The test involved incubating cells from the HELA cell line with the substances against which the cytotoxicity was going to be tested, this test being commonly used as a way to check the toxicity. The tested compounds included the capsules, as well as their main constituents separately: the iron salt used in the capsules (ferric saccharate), and sodium alginate. A negative control, which contained HELA growth medium alone, was also prepared, and used as the reference growth.
The test media were prepared under sterile conditions. Capsules prepared as in Example 1 (Capsule 0; batch 2 of Example 3) were sterilised in an autoclave (20 min, 110° C.). Using sterile material, 72 mg of capsules (capsules medium), 17 mg of ferric saccharate (iron salt medium) and 18 mg of sodium alginate (alginate medium) were each dissolved in 50 mL of HELA growth medium. […] 1:1, 1:10 and 1:100 dilutions of each of the test media were prepared by diluting the following amounts of capsules, iron salt or alginate medium with fresh HELA growth medium: • 1:1 20 μL+0 μL fresh HELA medium • 1:10 2 μL+18 μL fresh HELA medium • 1:100 0.2 μL+19.8 μL fresh HELA medium
3500 HeLa cells were cultured in 36 wells of two 96 well plates: 9 control wells and 27 for triplicates of 3 concentrations of 3 products. Medium was added to each well up to 100 μL. The cells were incubated at 37° C. for 24 h. 20 μL of each test media and 80 μL of fresh medium were added to each well. In the controls only 100 μL of fresh medium were added. One of the plates was incubated for 24 h and the other one for 72 h. The viability of the cells was measured after 24 and 72 h of incubation using the EZ4U non-radioactive cell proliferation and cytotoxicity assay (Biomedica Medizinproducte GmbH).
The results were expressed as percentage of growth with respect to the controls, i. e. as the percentage of viability, which is computed as the number of living cells in any of the test solutions (capsules, ferric saccharate or sodium alginate) divided by the number of living cells in the negative control, and expressed as percentage.

For ferric saccharate [Iron salt], the “% Viability 24 h” value is 76.3% ± 9.7 (dilution 1:1, relative to negative control); 101.7% ± 8.5 (dilution 1:10); 95.7% ± 3.2 (dilution 1:100). Also, the “% Viability 72 h” value runs as follows: (dilution 1:1) 66.8% ± 23.0; (dilution 1:10) 62.0% ± 15.7; (dilution 1:100) 68.7% ± 15.3.

For sodium alginate, the “cytotoxicity (in words)” value is on record as “No toxicity was observed”.
